Experimental data taken from patent US20220267270A1, “STING MODULATORS, COMPOSITIONS, AND METHODS OF USE” (University of South Florida, priority 2019, published 2022).

Assays:
[1] = molecular target: His-labeled STING (hSTING) (Homo sapiens, UniProt Q86WV6); experiment: Microscale thermophoresis (MST) binding assay; settings: for direct binding to hSTING by MST: FIG. 4
Method: Nanotemper Monolith NT.115 labeled thermophoresis machine was used with standard treated capillary tubes using samples comprised of labeled protein and titrations of small molecule in 1×PBS. […] Detection of the protein was performed using the blue detection channel with LED excitation power set to 90% and MST set to high allowing 3 s prior to MST on to check for initial fluorescence differences, 25 s for thermophoresis, and 3 s for regeneration after MST off.

[2] = molecular target: hSTING (Homo sapiens, UniProt Q86WV6); settings: native ligand, literature ITC value used for model validation; read-out: ITC binding energetics (KD); cited from earlier work
[3] = molecular target: His-tagged human STING CDN domain (Homo sapiens, UniProt Q86WV6); experiment: Surface Plasmon Resonance (SPR) binding; settings: steady state
Method: SPR was employed for binding measurements using His-tagged human STING CDN domain. A GE Healthcare Biacore T200 was equipped with an Ni-NTA chip. […] The sensorgrams were analyzed using Biacore T200 Software 3.0 (GE Healthcare) and steady state was measured at 4 sec before injection stop, exported into Graphpad, and fit vs concentration using a one site specific binding model to calculate the apparent equilibrium dissociation constant (KD). Where appropriate, kinetics were measured using a 1:1 Langmuir binding model with Rmax set to local to obtain the association rate (Kon), dissociation (Koff), and the KD.

[4] = tested on: STING-induced IRF3 expression; experiment: Competition of 335504 with agonist 2,3-cGAMP in THP-1 cells; assay type: cell-based, human
Text: FIG. 6 depicts the effect of various concentrations of 335504 and known agonist 2,3-cGAMP on luminescence measured from THP-1 monocytic leukemia cells. […] This effect, however, is not seen at higher concentrations due to the synergistic effect of the compounds on the IFN-β signaling pathway in these cells.

[5] = tested on: STING pathway (interferon stimulated genes, IRF3 promoter); experiment: Luciferase reporter assay in THP1-ISG-Lucia cells
Method: To maintain selection pressure, 10 μg/ml of blasticidin and 100 μg/ml of Zeocin™ was added to the growth medium every other passage.
For compounds, 10 mM stock solution in 100% DMSO was diluted 1:4 with ultrapure Milli Q water. For the positive control, 1 mM stock solution in 100% Milli Q H2O was diluted 3:1 with water. 50 μL of QUANTI-Luc™ luminesence assay reagent (Invivogen) was added after 18-24 h incubation period. Expression of Lucia luciferase was quantified by measuring luminescence from duplicate treatments. Data illustrated were average luminescence changes shown relative to DMSO-treated cells.
For compounds, 10 mM stock solution in 100% DMSO was diluted 1:4 with ultrapure Milli Q water. For the positive control, 1 mM stock solution in 100% Milli Q H2O was diluted 3:1 with water. 50 μL of QUANTI-Luc™ luminesence assay reagent (Invivogen, San Diego, Calif., USA) was added after 18-24 h incubation period. Expression of Lucia luciferase was quantified by measuring luminescence from duplicate treatments. Data illustrated are average luminescence changes shown relative to DMSO-treated cells. A Glowmax luminometer (Promega, Madison, Wis., USA) was used. QUANTI-Luc™ was prepared following the manufacturer's instructions. 10 μl of THP1-Dual™ KI-hSTING-R232 cell culture supernatant was pipetted into each well in a 96-well white (opaque) plate. 50 μl of QUANTI-Luc™ was added to each well. The measurement was then immediately taken using a 4 sec incubation time and integrating over 1 sec.
A luciferase assay utilizing monocytic leukemia THP-1 cells was carried out to determine the upregulation of the IRF3 promoter gene as a downstream indicator of STING pathway activation.
FIG. 4C depicts a plot of luminescence vs. log of concentration of a luciferase assay utilizing monocytic leukemia THP-1 cells that was carried out to determine the regulation of interferon stimulated genes (ISG).

His-labeled STING (hSTING), sequence (Q86WV6 153-340 H232R limits assumed): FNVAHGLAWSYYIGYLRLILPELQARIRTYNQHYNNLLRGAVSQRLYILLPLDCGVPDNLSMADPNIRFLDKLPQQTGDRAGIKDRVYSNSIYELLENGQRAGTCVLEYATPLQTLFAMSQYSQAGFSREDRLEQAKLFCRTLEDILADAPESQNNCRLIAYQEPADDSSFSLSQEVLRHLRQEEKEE
His-tagged human STING CDN domain, sequence (Q86WV6 153-340 H232R limits assumed): as above
hSTING, sequence (Q86WV6 139-379 H232R limits assumed): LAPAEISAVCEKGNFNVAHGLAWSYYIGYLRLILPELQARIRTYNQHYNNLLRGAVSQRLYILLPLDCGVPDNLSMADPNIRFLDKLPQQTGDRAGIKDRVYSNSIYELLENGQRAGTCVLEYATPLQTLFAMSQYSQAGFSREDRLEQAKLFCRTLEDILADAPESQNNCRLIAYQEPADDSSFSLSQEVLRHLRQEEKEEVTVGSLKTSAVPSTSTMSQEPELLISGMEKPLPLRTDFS

Structure (SMILES)	direct binding to hSTING by MST [1]	Kd [2]	Kd [3]	Kd ([1]; rough initial estimate of binding affinity)	IC50 ([4]; Homo sapiens, THP-1 monocytic leukemia cells, with agonist 2,3-cGAMP, FIG. 7)	competition with 2,3-cGAMP (luminescence) ([4]; single to double digit concentrations of 335504, FIG. 6)	ISG output (luminescence) vs DMSO blank ([5]; 3 μM, FIG. 2)	effect on cells at higher concentrations ([5]; >20 μM, DMSO percentages increased)	EC50 ([5]; Homo sapiens, THP-1, read-out: luciferase assay EC50)	effect in luciferase assay compared to 2,3-cGAMP ([5]; THP-1 cells)	increase in Luciferase activity compared to the blank ([5]; THP-1 cells, FIG. 4)
Nc1nc2c(ncn2[C@@H]2O[C@@H]3COP(=O)(O)O[C@H]4[C@@H](O)[C@H](n5cnc6c(=O)[nH]c(N)nc65)O[C@@H]4COP(=O)(O)O[C@H]3[C@H]2O)c(=O)[nH]1 [c-di-GMP]	binds but with lesser affinity	1200 nM	4800 nM	–	–	–	–	–	–	–	–
Cc1c(Cl)cccc1Nc1ncccc1C(=O)OCC(O)CO (stereo not shown) [NSC 335504]	bind to hSTING	–	430 ± 140 nM	260 ± 66 nM	~4.8 nM	competition of the compound with 2,3cGAMP can be observed	large increase in ISG output	appeared to cause cell death	29000 ± 1600 nM	significantly lower	50%
